From patent US20020183388A1, “Use of retinoids plus histone deacetylase inhibitors to inhibit the growth of solid tumors” (priority 2001, published 2002)

Columns and labels:
[1] = system: HMEC normal human mammary epithelial cells (primary cultures); test: Growth assay of HMEC cells, cell number counted; assay type: cell-based; conditions: cells counted days 0, 3, 5, 7, 1 μM retinoic acid, 2 ng/ml TSA, 25 μM phenylbutyrate
Procedure: Also used were HMEC cells, which are cells from a normal human mammary epithelial cell line (primary cultures).
(§1) Data was plotted using Prism 3.0.
The drugs were added as described above, and cells were counted on days 0, 3, 5, and 7. […] However, in the body, most normal cells are not rapidly dividing as tumor cells are. […] This experiment was primarily performed in order to determine if the retinoid and histone deacetylase inhibitor combination worked similarly in tumor and normal epithelial cells.

[2] = system: MB-435 human breast cancer cells; test: Growth assay of MB-435 cells by MTT; assay type: cell-based
Procedure: 96 well tissue culture dishes were seeded with 10^4 cells/well in 200 μL DME tissue culture medium supplemented with 10% fetal calf serum (FCS).
This assay detects color which is proportional to the number of cells present. Tissue culture medium containing drugs was removed and 200 µL of DME containing 2 mg/mL MTT ((3-4, 5-dimethyl thiazol-2yl) 2,5-diphenyltetrazolium bromide) was added to each well. Plates were incubated at 37° C. and 10% CO2 for 30 minutes. Medium containing MTT was then removed and the cells were washed once with PBS. Following removal of the PBS, 200 μL DMSO was added to each well and plates were placed on a rotating platform shaker for 5 minutes. Results were obtained by reading the absorbance at a wavelength of 550 nm using a spectrophotometer. Data was plotted using Prism 3.0.
Cells were plated in wells on day 0. Drugs were added on day 0 and again on days 3 and 5. The MTT assay was carried out on days 5 and 7. 1 μM of retinoic acid was used vs. 1 μM of liposomal retinoic acid (ATRA-IV). A very low dose (2 ng/ml) of trichostatin A (TSA) was also used. In addition, another inhibitor of histone deacetylases, 500 μM phenylbutyrate, was used. Various combinations of the drugs were also used in the growth assays.
Cells were treated as indicated.

[3] = system: SK-RC-39 cells (subcutaneous xenograft); test: Human tumor xenograft model in nu/nu mice; assay type: in vivo
Procedure: Forty Swiss nu/nu mice were injected in the right flank subcutaneously with 5×10^6 SK-RC-39 cells that had been cultured in 7% MEM and then trypsinized. Four days later, four cohorts of 10 mice each began to receive one tail vein injection of TSA or control and one injection of ATRA-IV or control every Monday, Wednesday and Friday for the duration of the experiment. The four treatment groups were as follows: (1) PBS with 1% EtOH+empty liposomes; (2) LipoATRA (7.4-8.1 mg/kg)+PBS with 1% EtOH; (3) TSA ([…])+empty liposomes; and (4) TSA+LipoATRA. The study ended in the eighth week of treatment and at least six animals remained in each arm at the conclusion of the study and were considered evaluable. The animals tolerated the treatment well and gained weight throughout the treatment course. […] The tumor growth inhibition observed in the TSA+LipoATRA arm was much greater than that observed in the control arm. While the difference between the TSA+LipoATRA and the TSA+empty liposome arm was significant (FIG. 16), both of these treatments led to a very statistically significant difference in growth as compared to the control arm.

[4] = system: SK-RC-45 human renal carcinoma cells; test: Growth assay of SK-RC-45 cells, cell number counted
Procedure: Liposome encapsulated ATRA (ATRA-IV, Antigenics Inc., New York, N.Y.) was reconstituted from 100 mg vials with 50 ml of 0.9% saline. Powdered ATRA was dissolved in EtOH to make a 1 mM ATRA (Sigma, St. Louis, Mo.) stock which was stored at −80° C. Trichostatin A (Wako Pure Chemical Industries, Ltd., Osaka, Japan) was dissolved in 5 ml of EtOH to make a 1 mg/ml stock and sodium phenylbutyrate (NaPBA, Triple Crown America, Perkasie, Pa.) was prepared weekly from the powdered form to make a 25 mM stock solution. Cell lines were maintained in Minimal Essential Medium supplemented with 7% fetal calf serum, non-essential amino acids, and 1% penicillin/streptomycin (7% MEM). Empty liposomes (provided by Antigenics Inc.) were diluted in 10 ml of 0.9% saline to equal the same concentration of liposomes in the lipoATRA.
(§2) 24 well tissue culture dishes were seeded with cells in 1 mL tissue culture medium (Clonetics) at 10^4 cells/well. Cells were incubated overnight at 37° C. in 10% CO2. Fresh medium containing drugs: Ethanol control (EtOH), 1 μM retinoic acid (RA), 2ng/mL trichostatin A (TSA), 25 μM sodium phenylbutyrate (PBa), and combinations of these were added the next day (day zero). Fresh medium containing drugs was added on days 3 and 5. Cells were trypsinized on days 0, 3, 5, and 7 and cell number was determined using a Z1 Coulter particle counter. […] Error bars are the standard error mean (SEM) of 4 replicate wells.
Cells were treated as indicated. The cell number was counted on day 7.
Cells were treated as indicated and cell number was counted.

[5] = system: PC-3 human prostate cancer cells; test: Growth assay of PC-3 cells, cell number counted; assay type: cell-based; conditions: day 7; low dose TSA; drugs added only once on day 0
Procedure: as §1
Results of growth assays of the human prostate cancer cell line PC-3, are depicted in FIG. 20. Cells were treated as indicated. Cell number was counted on days 0, 3, 5, and 7. Drugs were added only once on day 0. TSA alone, retinoic acid alone, and retinol alone each inhibited cell growth by approximately 20% at day 7. The combination of low dose TSA plus retinoic acid or low dose TSA plus retinol inhibited cell growth by almost 60%.

[6] = system: SK-RC-01 human renal carcinoma cells; test: Growth assay of SK-RC-01 cells, cell number counted; conditions: for inhibition of cell growth (FIG. 7): retinoic acid
Procedure: Trichostatin A (Wako Pure Chemical Industries, Ltd., Osaka, Japan) was dissolved in 5 ml of EtOH to make a 1 mg/ml stock and sodium phenylbutyrate (NaPBA, Triple Crown America, Perkasie, Pa.) was prepared weekly from the powdered form to make a 25 mM stock solution. Cell lines were maintained in Minimal Essential Medium supplemented with 7% fetal calf serum, non-essential amino acids, and 1% penicillin/streptomycin (7% MEM).
as §2
Cells were treated as indicated. The cell number was counted at day 7.
The cell number was counted on day 7.

[7] = system: SK-RC-39 human renal carcinoma cells; test: Growth assay of SK-RC-39 cells, cell number counted; assay type: cell-based; conditions: low dose TSA
Procedure: as §1
The cells were counted at day 7. A small amount of ethanol was added to the control cells, as a vehicle and solvent for the retinoic acid.
Culture conditions were as shown. […] The term EtOH indicates the control cells, treated with a very low amount of ethanol, the same amount used to dissolve retinoic acid.

[8] = system: LnCap human prostate cancer cells; test: Growth assay of LnCap cells, cell number counted; assay type: cell-based; conditions: 168 h, day 7, 1 μM retinoic acid, 1 μM retinol, 0.5 μM valproic acid, drugs added only once at time 0, read-out: inhibition of cell growth (FIG. 17)
Procedure: as §1
Cell number was counted on days 0, 3, 5, and 7. In this experiment, retinoic acid was employed alone at 1 μM. Retinol (vitamin A) was employed at 1 μM. Valproic acid, a histone deacetylase inhibitor, was employed at 0.5 μM alone. Combinations of these drugs were also used. All drugs were added only once, at time 0, in this experiment. […] Valproic acid (VPA) alone inhibited cell growth by approximately 40%. The combination of retinoic acid plus VPA inhibited cell growth by 75%, as did the combination of valproic acid plus retinol.

[9] = system: SCC-15 human head and neck cancer cells; test: Growth assay of SCC-15 cells, cell number counted; assay type: cell-based; conditions: SCC-15, 168 h, day 7, TSA 8 ng/ml, 1 μM retinoic acid, 1 μM retinol, drugs added only at time 0, read-out: inhibition of cell growth (FIG. 19)
Procedure: as §1
Cells were treated as indicated. Drugs were added only at time 0. Cell number was counted on days 0, 3, 5, and 7.
Cell number was counted on days 0, 3, 5, and 7. In this experiment, a low dose of TSA (8 ng/ml) was used alone or in combination with 1 μM retinoic acid or 1 μM retinol. Drugs were added only at time 0.

[10] = cells counted on day 7, 1 μM retinoic acid, low dose TSA
[11] = cells counted at day 7, low dose TSA

CC(/C=C/C(=O)NO)=C\[C@@H](C)C(=O)c1ccc(N(C)C)cc1 [TSA, trichostatin A]
inhibition of cell growth (FIG. 2) [1]: about 50% | growth inhibition, high dose TSA (FIG. 3) ([2]; TSA 100 ng/ml): complete growth inhibition | inhibition of cell growth (FIG. 1) ([2]; day 7, 1 μM retinoic acid, 1 μM ATRA-IV, 2 ng/ml TSA, 500 μM phenylbutyrate, drugs added days 0, 3, 5): did not inhibit cell growth | comparison of cell growth reduction between treatments (FIG. 3) ([2]; days 3, 5, 7): better in reducing cell growth than phenylbutyrate | toxicity, histologic analysis of the liver, lung, spleen and kidneys ([3]; nu/nu mice, tail vein injection Mon/Wed/Fri for eight weeks): lack of toxicity | inhibition of tumor growth compared to control (FIG. 16) ([3]; tail vein injection Mon/Wed/Fri, eighth week of treatment, LipoATRA 7.4-8.1 mg/kg, TSA 34-41 μg/ml): 38% | inhibition of cell growth (FIG. 8) [4, 10]: 60-65% | inhibition of cell growth, high dose TSA (FIG. 8) ([4]; cells counted on day 7, TSA 100 ng/ml): extremely effective in inhibiting kidney cancer cell growth | inhibition of cell growth (FIG. 20) [5]: approximately 20% | inhibition of cell growth, high dose TSA (FIG. 7) ([6]; cells counted at day 7, TSA 100 ng/ml): roughly 100% | inhibition of cell growth (FIG. 7) [6, 11]: 20-25% | inhibition of cell growth (FIG. 12) [6, 10]: approximately 25% | inhibition of cell growth, high dose TSA (FIG. 12) ([6]; cells counted on day 7, high dose TSA): greater than 95% | inhibition of cell growth (FIG. 6) ([7]; cells counted at day 7, retinoic acid): 80-90% | inhibition of cell growth (FIG. 9) ([7]; cells counted on day 7, 1 μM retinoic acid): approximately 75%

CC1=C(/C=C/C(C)=C/C=C/C(C)=C/C(=O)O)C(C)(C)CCC1 [retinoic acid, 3, 7 dimethyl-9-(2,6,6-trimethyl-1-cyclohenen-1-yl)-2,4,6,8,-nonatetraenoic acid]
inhibition at 1 µM ([1]; Homo sapiens, HMEC, read-out: inhibition of cell growth (FIG. 2)): ~50% | inhibition at 1 µM ([2]; Homo sapiens, 168 h, day 7, 1 μM retinoic acid, 1 μM ATRA-IV, 2 ng/ml TSA, 500 μM phenylbutyrate, drugs added days 0, 3, 5, read-out: inhibition of cell growth (FIG. 1)): ~20% | inhibition at 1 µM [8]: 25% | inhibition at 1 µM ([4]; Homo sapiens, 168 h, read-out: inhibition of cell growth (FIG. 8)): 55 to 60% | inhibition of cell growth (FIG. 20) [5]: approximately 20% | inhibition at 1 µM ([6]; Homo sapiens, 168 h, read-out: inhibition of cell growth (FIG. 12)): 12.5% | inhibition of cell growth (FIG. 7) [6, 11]: ~10% | inhibition at 1 µM [9]: 35 to 40%

CCCC(CCC)C(=O)O [Valproic acid]
inhibition at 0.5 µM [8]: ~40%

CC1=C(/C=C/C(C)=C/C=C/C(C)=C/CO)C(C)(C)CCC1 [retinol]
inhibition at 1 µM [8]: ~27% | inhibition of cell growth (FIG. 20) [5]: approximately 20% | inhibition at 1 µM [9]: 35 to 40%
